In patent publication US6812346B2, “Substituted pyridines as selective cyclooxygenase-2 inhibitors” (Merck Frosst Canada and Co., priority 1996, dated 2004):
Read-outs that look alike come from different tables or passages of the source.

Experiments:
[1] = tested on: carrageenan-induced rat paw edema; assay: Rat paw edema assay; type: in vivo; conditions: male Sprague-Dawley rats, po, 1 hr before carrageenan, paw volume 3 hr later; for ED50: Rattus norvegicus
Procedure: Male Sprague-Dawley rats (150-200 g) are fasted overnight and are given, po, either vehicle (1% methocel or 5% Tween 80) or a test compound. One hr later, a line is drawn using a permanent marker at the level above the ankle in one hind paw to define the area of the paw to be monitored. The paw volume (V0) is measured using a plethysmometer (Ugo-Basile, Italy) based on the principle of water displacement. The animals are then injected subplantarly with 50 μl of 1% carrageenan solution in saline (FMC Corp, Maine) into the paw using an insulin syringe with a 25-gauge needle (i.e. 500 μg carrageenan per paw). Three hr later, the paw volume (V3) is measured and the increases in paw volume (V3-V0) are calculated. The animals are sacrificed by CO2 asphyxiation and the absence or presence of stomach lesions scored. Data is compared with the vehicle-control values and percent inhibition calculated. All treatment groups are coded to eliminate observer bias.

COX-2 = molecular target: T1, COX-2 (Homo sapiens, UniProt P35354); assay: Human whole blood assay, COX-2 (LPS-induced PGE2 production); type: cell-based
T1 sequence (P35354 18-604): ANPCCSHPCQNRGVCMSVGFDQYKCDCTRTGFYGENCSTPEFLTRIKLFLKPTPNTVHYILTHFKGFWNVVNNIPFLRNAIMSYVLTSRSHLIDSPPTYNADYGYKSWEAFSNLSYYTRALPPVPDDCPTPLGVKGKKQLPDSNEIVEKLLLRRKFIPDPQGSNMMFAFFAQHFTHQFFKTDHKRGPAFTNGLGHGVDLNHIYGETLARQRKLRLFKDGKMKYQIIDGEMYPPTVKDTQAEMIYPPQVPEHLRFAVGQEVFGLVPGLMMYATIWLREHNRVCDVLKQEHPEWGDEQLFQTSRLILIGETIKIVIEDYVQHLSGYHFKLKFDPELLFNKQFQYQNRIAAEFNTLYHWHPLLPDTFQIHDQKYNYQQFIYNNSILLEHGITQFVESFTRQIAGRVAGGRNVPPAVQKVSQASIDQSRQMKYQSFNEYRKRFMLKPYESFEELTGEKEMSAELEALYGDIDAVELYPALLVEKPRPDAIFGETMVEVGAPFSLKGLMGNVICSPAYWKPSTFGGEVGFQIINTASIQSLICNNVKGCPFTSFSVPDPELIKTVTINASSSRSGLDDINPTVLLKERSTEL
Excerpt: As well, platelets in whole blood contain a large amount of the COX-1 enzyme. Immediately following blood clotting, platelets are activated through a thrombin-mediated mechanism. This reaction results in the production of thromboxane B2 (TxB2) via activation of COX-1. Thus, the effect of test compounds on TxB2 levels following blood clotting can be examined and used as an index for COX-1 activity. Therefore, the degree of selectivity by the test compound can be determined by measuring the levels of PGE2 after LPS induction (COX-2) and TxB2 following blood clotting (COX-1) in the same assay.
Step A: COX-2 (LPS-induced PGE2 Production)
Fresh blood is collected in heparinized tubes by venipuncture from both male and female volunteers. The subjects have no apparent inflammatory conditions and have not taken any NSAIDs for at least 7 days prior to blood collection. Plasma is immediately obtained from a 2 mL blood aliquot to use as blank (basal levels of PGE2).

COX-1 = molecular target: T2, COX-1 (Homo sapiens, UniProt P23219); assay: Cox-1 U937 (COX-1 activity from U937 cell microsomes); type: biochemical; conditions: U937, PGE2 synthesis in presence of AA
T2 construct: Assay of COX-1 Activity from U937 Cell Microsomes; endogenous in cells; host or cells: U937 cells, 100,000 x g microsomal fraction
T2 sequence (P23219 24-599): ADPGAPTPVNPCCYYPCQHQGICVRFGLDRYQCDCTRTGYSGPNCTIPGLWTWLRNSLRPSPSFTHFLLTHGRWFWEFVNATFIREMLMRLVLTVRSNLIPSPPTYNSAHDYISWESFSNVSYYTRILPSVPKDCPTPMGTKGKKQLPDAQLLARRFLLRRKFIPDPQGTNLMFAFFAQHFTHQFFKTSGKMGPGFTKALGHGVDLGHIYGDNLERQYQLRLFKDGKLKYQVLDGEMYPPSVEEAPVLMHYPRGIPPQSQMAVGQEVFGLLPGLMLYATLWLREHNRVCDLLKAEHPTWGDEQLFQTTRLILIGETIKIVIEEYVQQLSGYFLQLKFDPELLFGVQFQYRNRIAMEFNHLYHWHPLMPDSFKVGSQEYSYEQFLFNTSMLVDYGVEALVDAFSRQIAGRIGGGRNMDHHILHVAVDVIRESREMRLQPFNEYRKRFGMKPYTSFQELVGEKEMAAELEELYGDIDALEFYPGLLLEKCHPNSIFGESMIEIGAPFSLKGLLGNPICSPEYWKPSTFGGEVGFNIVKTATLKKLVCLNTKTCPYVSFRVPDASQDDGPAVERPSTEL
Procedure: Assay of COX-1 Activity from U937 Cell Microsomes
U 937 cells are pelleted by centrifugation at 500×g for 5 min and washed once with phosphate-buffered saline and repelleted. Cells are resuspended in homogenization buffer consisting of 0.1 M Tris-HCl, pH 7.4, 10 mM EDTA, 2 μg/ml leupeptin, 2 μg/ml soybean trypsin inhibitor, 2 μg/ml aprotinin and 1 mM phenyl methyl sulfonyl fluoride. The cell suspension is sonicated 4 times for 10 sec and is centrifuged at 10,000×g for 10 min at 4° C. The supernatant is centrifuged at 100,000×g for 1 hr at 4° C. The 100,000×g microsomal pellet is resuspended in 0.1 M Tris-HCl, pH 7.4, 10 mM EDTA to approximately 7 mg protein/ml and stored at −80° C.
Assays are performed in duplicate in a final volume of 250 μl. Initially, 5 μl of DMSO vehicle or drug in DMSO are added to 20 μl of 0.1 M Tris-HCl buffer, pH 7.4 containing 10 mM EDTA in wells of a 96-deepwell polypropylene titre plate. 200 μl of the microsomal preparation are then added and pre-incubated for 15 min at room temperature before addition of 25 μl of […] in […] Tris-HCl and 10 mM EDTA, pH 7.4. Samples are incubated for 40 min at room temperature and the reaction is stopped by the addition of 25 μl of 1 N HCl. Samples are neutralized with 25 μl of 1 N NaOH prior to quantitation of PGE2 content by radioimmunoassay (Dupont-NEN or Amersham assay kits). Cyclooxygenase activity is defined as the difference between PGE2 levels in samples incubated in the presence of arachidonic acid and ethanol vehicle.

[2] = human whole blood, LPS-induced PGE2 production, 24 hours at 37° C., read-out: Cox-2 Whole Blood (IC50)
[3] = Cox-1 U937 IC50 over Cox-2 whole blood IC50

Row | SMILES | IC50 (COX-2; [2]) | IC50 (COX-1) | Selectivity Ratio (COX-2; [3]) | ED50 [1] | also measured
1 | CS(=O)(=O)c1ccc(-c2cccnc2-c2ccccc2)cc1 [Aa, reference compound] | – | – | – | > 10 mg/kg | –
2 | CS(=O)(=O)c1ccc(-c2cccnc2-c2ccc(F)cc2)cc1 [Ab, reference compound] | 4900 nM | 2.2 µM | – | – | –
3 | CS(=O)(=O)c1ccc(-c2cc(C(F)(F)F)cnc2-c2ccccc2)cc1 [Example 1, 3-(4-Methylsulfonyl)phenyl-2-phenyl-5-trifluoromethylpyridine] | 300 nM | 1.5 µM | 4.4 | 5.4 mg/kg | –
4 | CS(=O)(=O)c1ccc(-c2cc(Cl)cnc2-c2cccnc2)cc1 [Example 21, 5-Chloro-3-(4-methylsulfonyl)phenyl-2-(3-pyridinyl)pyridine] | 1000 nM | 16 µM | 16 | 2.3 mg/kg | –
5 | CS(=O)(=O)O.CS(=O)(=O)c1ccc(-c2cc(Cl)cnc2-c2cccnc2)cc1 [Example 46, 5-Chloro-3-(4-methylsulfonyl)phenyl-2-(3-pyridyl)pyridine hydromethanesulfonate] | – | – | – | – | Rat Paw Edema (ED50, mg/kg) [1]: 3.3 mg/kg
6 | CS(=O)(=O)c1ccc(-c2cc(Cl)cnc2-c2cccnc2)cc1.Cl [Example 47, 5-Chloro-3-(4-methylsulfonyl)phenyl-2-(3-pyridyl)pyridine hydrochloride] | – | – | – | – | Rat Paw Edema (ED50, mg/kg) [1]: 2.4 mg/kg
7 | Cc1ccc(-c2ncc(Cl)cc2-c2ccc(S(C)(=O)=O)cc2)cn1.Cl [Example 59, 5-Chloro-3-(4-methylsulfonyl)phenyl-2-(2-methyl-5-pyridinyl)pyridine Hydrochloride] | – | – | – | – | Rat Paw Edema (ED50, mg/kg) [1]: 0.8 mg/kg
8 | CCc1ccc(-c2ncc(Cl)cc2-c2ccc(S(C)(=O)=O)cc2)cn1 [Example 71, 5-Chloro-3-(4-methylsulfonyl)phenyl-2-(2-ethyl-5-pyridinyl)pyridine] | – | > 10 µM | – | 1.6 mg/kg | –
9 | CS(=O)(=O)c1ccc(-c2cc(Cl)cnc2-c2ccc(C3CC3)nc2)cc1 [Example 73, 5-Chloro-3-(4-methylsulfonyl)phenyl-2-(2-cyclopropyl-5-pyridinyl)pyridine] | – | 7 µM | – | 2 mg/kg | IC50 (COX-2): 1800 nM; Selectivity Ratio (COX-2): 3.8

Further lines, with some results ahead:

Row | IC50 (COX-2; [2]) | IC50 (COX-1) | Selectivity Ratio (COX-2; [3]) | SMILES | ED50 [1] | also measured
10 | 900 nM | 1.8 µM | 2 | CS(=O)(=O)c1ccc(-c2cc(C(F)(F)F)cnc2-c2ccc(Cl)cc2)cc1 [Example 3, 2-(4-Chlorophenyl)-3-(4-methylsulfonyl)phenyl-5-trifluoromethylpyridine] | – | –
11 | 300 nM | 1 µM | 3.3 | CS(=O)(=O)c1ccc(-c2cc(C(F)(F)F)cnc2-c2ccc(F)cc2)cc1 [Example 4, 2-(4-Fluorophenyl)-3-(4-methylsulfonyl)phenyl-5-trifluoromethylpyridine] | – | –
12 | – | 5 µM | – | CS(=O)(=O)c1ccc(-c2cc(C(F)(F)F)cnc2-c2cccnc2)cc1 [Example 7, 3-(4-Methylsulfonyl)phenyl-2-(3-pyridinyl)-5-trifluoromethylpyridine] | – | –
13 | 500 nM | 3 µM | 6 | Cc1cnc(-c2ccccc2)c(-c2ccc(S(C)(=O)=O)cc2)c1 [Example 13, 5-Methyl-3-(4-methylsulfonyl)phenyl-2-phenylpyridine] | – | –
14 | 700 nM | 1.4 µM | 2 | Cc1cnc(-c2ccc(Cl)cc2)c(-c2ccc(S(C)(=O)=O)cc2)c1 [Example 14, 2-(4-Chlorophenyl)-5-methyl-3-(4-methylsulfonyl)phenylpyridine] | – | –
15 | – | > 10 µM | – | Cc1ccc(-c2ncc(Cl)cc2-c2ccc(S(C)(=O)=O)cc2)cn1 [Example 23, 5-Chloro-3-(4-methylsulfonyl)phenyl-2-(2-methyl-5-pyridinyl)pyridine] | – | –
16 | 1200 nM | > 10 µM | – | CS(=O)(=O)c1ccc(-c2cc(Br)cnc2-c2cccnc2)cc1 [Example 32] | 0.9 mg/kg | –
17 | 2200 nM | > 10 µM | >4.5 | CS(=O)(=O)c1ccc(-c2cc(C#N)cnc2-c2ccc(Cl)cc2)cc1 [Example 45, 5-Cyano-2-(4-chlorophenyl)-3-(4-methylsulfonyl)phenylpyridine] | 3 mg/kg | –
